Reference: patent US11130741B2 (Bioimics AB, priority 2016, dated 2021)
In brackets after ≈: the same amount, converted by molar mass. Read-outs that look alike come from different tables or passages of the source.

Tests used:
[1] = tested on: Escherichia coli (ATCC25922); test: MIC, broth microdilution (CLSI), Escherichia coli ATCC25922
[2] = tested on: Staphylococcus aureus (ATCC25923); test: MIC, broth microdilution (CLSI), Staphylococcus aureus ATCC25923
[3] = tested on: E. coli RNase P RNA, M1 RNA; test: Inhibition of bacterial RNase P activity, IC50 determination (cleavage of pATSerUG by M1 RNA); format: biochemical; settings: NI = No inhibition
[4] = ATCC25922, read-out: E. coli MIC, Table 15, NI = No inhibition
[5] = ATCC25923, read-out: S. aureus ("Clinical") MIC

SMILES | MIC [1, 4] | MIC [2, 5] | IC50 [3] | MIC ([1]; ATCC25922, read-out: E. coli MIC) | MIC ([2]; ATCC25923, read-out: S. aureus ("Clinical") MIC, Table 15)
COc1cc(-c2ccc3c(c2)Sc2ccccc2N3CCCN(C)C)ccn1 [compound 153, 3-(3-(2-methoxypyridin-4-yl)-10H-phenothiazin-10-yl)-N,N-dimethylpropan-1-amine] | > 100 µg/mL | 25 µg/mL (≈ 63.9 µM) | > 100 µM |  | 
NCCN1CCCC(C(=O)Nc2cc(C(F)(F)F)cc3c2Nc2ccccc2S3)C1 (stereo not shown) [compound 203] | 14 µg/mL (≈ 32.1 µM) | 14 µg/mL (≈ 32.1 µM) | 4 µM |  | 
NC1CCCC(C(=O)Nc2cc(Cl)cc3c2Nc2ccccc2S3)C1 (stereo not shown) [compound 161, 3-amino-N-(3-chloro-10H-phenothiazin-1-yl)cyclohexane-carboxamide] | 96 µg/mL (≈ 257 µM) | 24 µg/mL (≈ 64.2 µM) | 68 µM |  | 
N#Cc1cc(NC(=O)C2CCCC(N)C2)c2c(c1)Sc1ccccc1N2 (stereo not shown) [compound 119, 3-amino-N-(3-cyano-10H-phenothiazin-1-yl)cyclohexane-carboxamide] | > 100 µg/mL | 93 µg/mL (≈ 255 µM) | > 100 µM |  | 
NCCN1CCCC(Nc2cc(C(F)(F)F)cc3c2Nc2ccccc2S3)CC1 (stereo not shown) [compound 225, N-(1-(2-aminoethyl)azepan-4-yl)-3-(trifluoromethyl)-10H-phenothiazin-1-amine] | 7 µg/mL (≈ 16.6 µM) | 3 µg/mL (≈ 7.1 µM) | > 100 µM |  | 
FC(F)(F)c1cc(NCC2CCNCC2)c2c(c1)Sc1ccccc1N2 [compound 173, N-(piperidin-4-ylmethyl)-3-(trifluoromethyl)-10H-phenothiazin-1-amine] | > 100 µg/mL | 24 µg/mL (≈ 63.2 µM) | 59 µM |  | 
N[C@@H]1CCC[C@H](C(=O)Nc2cc(C(F)(F)F)cc3c2Nc2ccccc2S3)C1 [compound 125, (1S,3R)-3-amino-N-(3-(trifluoromethyl)-10H-phenothiazin-1-yl)cyclohexane-carboxamide] | 26 µg/mL (≈ 63.8 µM) | 13 µg/mL (≈ 31.9 µM) | 20 µM |  | 
O=C(CC1CCC(F)(F)CC1)Nc1cc(C(F)(F)F)cc2c1Nc1ccccc1S2 [compound 132, 2-(4,4-difluorocyclo-hexyl)-N-(3-(trifluoromethyl)-10H-phenothiazin-1-yl)acetamide] | > 100 µg/mL | 4 µg/mL (≈ 9.04 µM) | > 100 µM |  | 
FC(F)(F)c1cc(NC2CCNCC2)c2c(c1)Oc1ccccc1N2 [compound 169, N-(piperidin-4-yl)-3-(trifluoromethyl)-10H-phenoxazin-1-amine] | 45 µg/mL (≈ 129 µM) | 11 µg/mL (≈ 31.5 µM) | 36 µM |  | 
O=C(Nc1cc(C(F)(F)F)cc2c1Nc1ccccc1S2)C1CCCC(O)C1 (stereo not shown) [compound 148, 3-hydroxy-N-(3-(trifluoromethyl)-10H-phenothiazin-1-yl)cyclohexane-carboxamide] | > 100 µg/mL | 26 µg/mL (≈ 63.7 µM) | > 100 µM |  | 
N[C@@H]1CCC[C@@H](CNc2cc(C(F)(F)F)cc3c2Nc2ccccc2S3)C1 [compound 171, N-(((1R,3R)-3-aminocyclohexyl)methyl)-3-(trifluoromethyl)-10H-phenothiazin-1-amine] | 13 µg/mL (≈ 33 µM) | 3 µg/mL (≈ 7.62 µM) | 42 µM |  | 
CN(C)CCCN1c2ccccc2Sc2cc(C3CC3)ccc21 [compound 116, 3-(3-cyclopropyl-10H-phenothiazin-10-yl)-N,N-dimethylpropan-1-amine] | > 100 µg/mL | 42 µg/mL (≈ 129 µM) | > 100 µM |  | 
CN(C)CCCN1c2ccccc2Sc2cc(-c3ccc4scnc4c3)ccc21 [compound 130, 3-(3-(benzo[d]thiazol-5-yl)-10H-phenothiazin-10-yl)-N,N-dimethylpropan-1-amine] | > 100 µg/mL | 7 µg/mL (≈ 16.8 µM) | 57 µM |  | 
NCCN1CCOC[C@H]1C(=O)Nc1cc(C(F)(F)F)cc2c1Nc1ccccc1S2.O=C(O)C(F)(F)F [compound 157, (S)-4-(2-aminoethyl)-N-(3-(trifluoro-methyl)-10H-phenothiazin-1-yl)morpholine-3-carboxamide 2,2,2-trifluoroacetate] | > 100 µg/mL | 71 µg/mL |  |  | 
NCCCNC1CCCC(C(=O)Nc2cc(C(F)(F)F)cc3c2Nc2ccccc2S3)C1 (stereo not shown) [compound 162, 3-((3-aminopropyl)amino)-N-(3-(trifluoromethyl)-10H-phenothiazin-1-yl)cyclohexane-carboxamide] | > 100 µg/mL | 30 µg/mL (≈ 64.6 µM) | 50 µM |  | 
NC[C@H]1CC[C@H](C(=O)Nc2cc(C(F)(F)F)cc3c2Nc2ccccc2O3)CC1 [compound 160, (1r,4r)-4-(aminomethyl)-N-(3-(trifluoromethyl)-10H-phenoxazin-1-yl)cyclohexane-carboxamide] | 52 µg/mL (≈ 128 µM) | 26 µg/mL (≈ 64.1 µM) | 60 µM |  | 
CN(C)CCCN1c2ccccc2Sc2cc(-c3cc4cc(CN)ccc4[nH]3)ccc21 [compound 181, 3-(3-(5-(aminomethyl)-1H-indol-2-yl)-10H-phenothiazin-10-yl)-N,N-dimethylpropan-1-amine] | 27 µg/mL (≈ 63 µM) | 7 µg/mL (≈ 16.3 µM) | > 100 µM |  | 
NC1CCCCC1C(=O)Nc1cc(C(F)(F)F)cc2c1Nc1ccccc1S2 (stereo not shown) [compound 113, 2-amino-N-(3-(trifluoromethyl)-10H-phenothiazin-1-yl)cyclohexane-carboxamide] | > 100 µg/mL | 7 µg/mL (≈ 17.2 µM) |  |  | 

SMILES | MIC [1, 4] | MIC [2, 5] | IC50 [3] | MIC ([1]; ATCC25922, read-out: E. coli MIC) | MIC ([2]; ATCC25923, read-out: S. aureus ("Clinical") MIC, Table 15)
NCCN1CCC(c2nc3cc(C(F)(F)F)cc4c3n2-c2ccccc2S4)CC1 [compound 239, 2-(4-(4-(Trifluoromethyl)imidazo[4,5,1-kl]phenothiazin-1-yl)piperidin-1-yl)ethanamine] | 13 µg/mL (≈ 31.1 µM) | 7 µg/mL (≈ 16.7 µM) | 17 µM |  | 
O=C(Nc1cc(C(F)(F)F)cc2c1Nc1ccccc1S2)C1CCNCC1 [compound 207, N-(3-(trifluoromethyl)-10H-phenothiazin-1-yl)piperidine-4-carboxamide] | 50 µg/mL (≈ 127 µM) | 25 µg/mL (≈ 63.5 µM) | 109 µM |  | 
NC1CCC(CNc2cc(C(F)(F)F)cc3c2Nc2ccccc2S3)CC1 (stereo not shown) [compound 108, N-((4-aminocyclohexyl)methyl)-3-(trifluoromethyl)-10H-phenothiazin-1-amine] | 32 µg/mL (≈ 81.3 µM) | 8 µg/mL (≈ 20.3 µM) | > 100 µM |  | 
NC1CC(N)CC(C(=O)Nc2cc(C(F)(F)F)cc3c2Nc2ccccc2S3)C1 (stereo not shown) [compound 170, 3,5-diamino-N-(3-(trifluoromethyl)-10H-phenothiazin-1-yl)cyclohexane-carboxamide] | 7 µg/mL (≈ 16.6 µM) | 3 µg/mL (≈ 7.1 µM) | 59 µM |  | 
NC1CCCC(CNc2cc(C(F)(F)F)cc3c2Nc2ccccc2O3)C1 (stereo not shown) [compound 164, N-((3-aminocyclohexyl)methyl)-3-(trifluoromethyl)-10H-phenoxazin-1-amine] | 97 µg/mL (≈ 257 µM) | 24 µg/mL (≈ 63.6 µM) |  |  | 
NCCN1CC(Nc2cc(C(F)(F)F)cc3c2Nc2ccccc2S3)C1 [compound 208, N-(1-(2-aminoethyl)azetidin-3-yl)-3-(trifluoromethyl)-10H-phenothiazin-1-amine] | 24 µg/mL (≈ 63.1 µM) | 12 µg/mL (≈ 31.5 µM) | 258 µM |  | 
FC(F)(F)c1cc(NC2CCNCC2)c2c(c1)Sc1cc(-c3cc4ccccc4[nH]3)ccc1N2 [compound 243, 7-(1H-indol-2-yl)-N-(piperidin-4-yl)-3-(trifluoromethyl)-10H-phenothiazin-1-amine] |  | 15 µg/mL (≈ 31.2 µM) | 39 µM |  | 
NC1CCCC(CC(=O)Nc2cc(C(F)(F)F)cc3c2Nc2ccccc2S3)C1 (stereo not shown) [compound 167, 2-(3-aminocyclohexyl)-N-(3-(trifluoromethyl)-10H-phenothiazin-1-yl)acetamide] | 27 µg/mL (≈ 64.1 µM) | 13 µg/mL (≈ 30.8 µM) | > 100 µM |  | 
FC(F)(F)c1cc2c3c(c1)nc(C1CCNCC1)n3-c1ccccc1S2 [compound 232, 1-(piperidin-4-yl)-4-(trifluoromethyl) imidazo[4,5,1-kl]phenothiazine] | 24 µg/mL (≈ 63.9 µM) | 6 µg/mL (≈ 16 µM) | 29 µM |  | 
NC[C@H]1CC[C@H](C(=O)Nc2cc(C(F)(F)F)cc3c2Nc2ccccc2S3)CC1 [compound 120, (1R,4R)-4-(aminomethyl)-N-(3-(trifluoromethyl)-10H-phenothiazin-1-yl)cyclohexane-carboxamide] | > 100 µg/mL | 27 µg/mL (≈ 64.1 µM) | 12 µM |  | 
NCCN1c2ccccc2Sc2cc(-c3cc4ccccc4[nH]3)ccc21 [compound 213, 2-(3-(1H-indol-2-yl)-10H-phenothiazin-10-yl)ethanamine] | 23 µg/mL (≈ 64.3 µM) | 3 µg/mL (≈ 8.39 µM) |  |  | 
NCCNCCN1CCC(Nc2cc(C(F)(F)F)cc3c2Nc2ccccc2S3)CC1 [compound 219, N1-(2-(4-((3-(trifluoromethyl)-10H-phenothiazin-1-yl)amino)piperidin-1-yl)ethyl)ethane-1,2-diamine] | 14 µg/mL (≈ 31 µM) | 7 µg/mL (≈ 15.5 µM) |  |  | 
NCCN1CCC(Nc2cc(C(F)(F)F)cc3c2Nc2ccccc2S3)C1 (stereo not shown) [compound 228, N-(1-(2-aminoethyl)pyrrolidin-3-yl)-3-(trifluoromethyl)-10H-phenothiazin-1-amine] | 13 µg/mL (≈ 33 µM) | 6 µg/mL (≈ 15.2 µM) |  |  | 
NCC(CCl)Nc1cc(C(F)(F)F)cc2c1Nc1ccccc1S2 (stereo not shown) [compound 178, 3-chloro-N2-(3-(trifluoromethyl)-10H-phenothiazin-1-yl)propane-1,2-diamine] |  |  |  | 48 µg/mL (≈ 128 µM) | 6 µg/mL (≈ 16.1 µM)
CN(C)CCCN1c2ccccc2Sc2cc(-c3cc4cc(C#N)ccc4[nH]3)ccc21.O=C(O)C(F)(F)F [compound 151, 2-(10-(3-(dimethylamino)propyl)-10H-phenothiazin-3-yl)-1H-indole-5-carbonitrile 2,2,2-trifluoroacetate salt] | > 100 µg/mL | 3 µg/mL |  |  | 
Nc1cc(C(F)(F)F)cc2c1Nc1ccc(-c3cc4ccccc4[nH]3)cc1S2 [compound 205, 7-(1H-indol-2-yl)-3-(trifluoromethyl)-10H-phenothiazin-1-amine] |  | 25 µg/mL (≈ 62.9 µM) | 364 µM |  | 
NC1CC(C(=O)Nc2cc(C(F)(F)F)cc3c2Nc2ccccc2S3)CCN1 (stereo not shown) [compound 139, 2-amino-N-(3-(trifluoromethyl)-10H-phenothiazin-1-yl)piperidine-4-carboxamide] | > 100 µg/mL | 52 µg/mL (≈ 127 µM) |  |  | 
